14 molecules from PubChem BioAssay (NCI) can be followed below.

Among the test systems are HOP-92 NSCLC; HT29 colon; SK-MEL-28 melanoma; SN12C renal; NCI-H226 lung; SF-268 CNS; U251 CNS; T-47D breast; HCT-15 colon; NCI-H522 lung; RXF 393 renal.
Common to all, as to assay: NCI-60 cell line screen, 48 h

The structures appear in SMILES notation.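 Method: 48-hour compound exposure of cells in 96-well plates, five concentrations, linear interpolation of endpoints. GI50 marks 50% less growth. TGI marks complete inhibition of growth.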

`COc1cc(C(=O)O[C@H](C(=O)NCCNC(=O)[C@@H](OC(=O)c2cc(OC)cc3c(C)cccc23)[C@]2(C)CO2)[C@]2(C)CO2)c2cccc(C)c2c1`: the GI50 was 101 nM in the assay on HOP-92 NSCLC; below 19.8 nM in the assay on HT29 colon; 52.4 nM in the assay on SK-MEL-28 melanoma; 21.1 nM with SN12C renal; 660 nM with NCI-H226 lung; below 10 nM with SF-268 CNS. In addition, the GI50 in the assay with U251 CNS was 22.5 nM; in the assay with T-47D breast it was 417 nM; in the assay with HCT-15 colon, 179 nM. Besides, the TGI in the assay on HOP-92 NSCLC was 0.404 µM; with HT29 colon it was 29.1 µM; with SN12C renal, 0.263 µM; with NCI-H226 lung, 2.11 µM; with SF-268 CNS, 0.191 µM; in the assay with U251 CNS, 0.306 µM. Besides, the TGI worked out at 3.48 µM in the assay with T-47D breast and 1.33 µM with HCT-15 colon.
For `O=c1[nH]c(=S)c2cc3c(=S)[nH]c(=O)n(CCC(c4ccccc4)(c4ccccc4)c4ccccc4)c3nc2n1CCC(c1ccccc1)(c1ccccc1)c1ccccc1`, the TGI in the assay with HOP-92 NSCLC, in the assay on SK-MEL-28 melanoma, in the assay on SN12C renal, in the assay with NCI-H226 lung, in the assay with SF-268 CNS and in the assay on NCI-H522 lung was above 100 µM in each case. For the same molecule, the TGI in the assay on U251 CNS, in the assay with T-47D breast and with HCT-15 colon was above 100 µM each time.
`CC1(C)CC(=O)C2=C(C1)NC(SCC(=O)O)=C(C#N)C2c1ccc(Br)cc1` (configuration not stated): the TGI in the assay on HOP-92 NSCLC, with HT29 colon, with RXF 393 renal, in the assay with SK-MEL-28 melanoma, in the assay on NCI-H226 lung and with SF-268 CNS was above 100 µM each time. For the same molecule, the TGI in the assay with NCI-H522 lung, in the assay on U251 CNS and in the assay on HCT-15 colon was above 100 µM throughout.
Turning to `CC(=O)N1CC(C)(C)c2c1cc(C)c(O)c2C`, the TGI in the assay with HT29 colon, in the assay on RXF 393 renal, in the assay on SK-MEL-28 melanoma, with SN12C renal, in the assay on NCI-H226 lung and with SF-268 CNS was above 100 µM in each case. The TGI in the assay on NCI-H522 lung, in the assay with U251 CNS, with T-47D breast and in the assay with HCT-15 colon was above 100 µM each time.
`COC(=O)C1=COC(C)C2C[n+]3ccc4c([nH]c5ccccc54)c3CC12` (configuration not stated): the TGI in the assay on HOP-92 NSCLC, with HT29 colon, in the assay on SK-MEL-28 melanoma, in the assay on SN12C renal, in the assay on NCI-H226 lung and in the assay with SF-268 CNS was above 100 µM each time. In addition, the TGI with NCI-H522 lung, with U251 CNS, in the assay with T-47D breast and in the assay with HCT-15 colon was above 100 µM throughout.
In the case of `C\C=C/C=C/C=C/C(=O)O`, the TGI in the assay on HT29 colon, in the assay on RXF 393 renal, with SK-MEL-28 melanoma, in the assay with SN12C renal, with NCI-H226 lung and with SF-268 CNS was above 100 µM each time. Also, the TGI in the assay on NCI-H522 lung, in the assay with U251 CNS and in the assay on HCT-15 colon was above 100 µM each time.
For `Nc1nc2cc(CNc3ccc(C(=O)O)cc3)ccc2nc1-c1ccccc1`, the TGI with HT29 colon, with RXF 393 renal, in the assay on SK-MEL-28 melanoma, in the assay on SN12C renal, with NCI-H226 lung and in the assay on SF-268 CNS was above 100 µM in each case. The TGI in the assay with NCI-H522 lung, with U251 CNS, with T-47D breast and in the assay with HCT-15 colon was above 100 µM each time.
Consider `COc1ccc2c(c1)C1Oc3ccccc3CC1(O)CO2` (configuration not stated), for which the TGI in the assay on HOP-92 NSCLC, in the assay with HT29 colon, in the assay with SN12C renal, with NCI-H226 lung, in the assay on SF-268 CNS and with NCI-H522 lung was above 100 µM in each case. Besides, the TGI in the assay on U251 CNS, in the assay on T-47D breast and in the assay with HCT-15 colon was above 100 µM each time.
In the case of `CCCN=C1Nc2ccccc2[C@@H]2N(C)c3ccccc3C(C)C[C@]12C` (some centres not stated), the TGI in the assay with HT29 colon was 27.8 µM; in the assay on RXF 393 renal, 37.2 µM; in the assay with SK-MEL-28 melanoma, 33.5 µM; with SN12C renal, above 100 µM; with NCI-H226 lung it was 73.4 µM; with SF-268 CNS it was 54.6 µM. Besides, the TGI in the assay on NCI-H522 lung is 39.8 µM; with T-47D breast it was 49.6 µM; in the assay on HCT-15 colon, 56.4 µM.
In the case of `CC(C)=CC(C)C(C(O)CCC1(c2ccoc2)OCCO1)S(=O)(=O)c1ccccc1` (configuration not stated), the TGI in the assay with RXF 393 renal, in the assay with SK-MEL-28 melanoma, in the assay on SN12C renal, with NCI-H226 lung, in the assay on SF-268 CNS and with NCI-H522 lung was above 100 µM each time. Also, the TGI with U251 CNS, in the assay with T-47D breast and in the assay with HCT-15 colon was above 100 µM throughout.
On to `COC(=O)c1c(C)ccc2c(O)c3c(cc12)C(=O)c1c2c(cc(O)c1C3=O)C1(C)OC(C)(O2)C(O)C(N(C)C)C1O` (configuration not stated), for which the TGI with HOP-92 NSCLC is above 100 µM; in the assay on HT29 colon, 2.01 µM; with SK-MEL-28 melanoma it was 11.8 µM; in the assay with SN12C renal, 12.1 µM; with NCI-H226 lung, 11.5 µM; in the assay on SF-268 CNS, 2.7 µM. Also, the TGI in the assay on NCI-H522 lung is 2.33 µM; with U251 CNS, 1.6 µM.
In the case of `NNC(=Nc1ccccc1)SCc1ccccc1`, the TGI in the assay on HOP-92 NSCLC, in the assay on HT29 colon, with RXF 393 renal, with SK-MEL-28 melanoma, in the assay with SN12C renal and in the assay with NCI-H226 lung was above 100 µM in each case. Moreover, the TGI in the assay with NCI-H522 lung, in the assay on U251 CNS and with HCT-15 colon was above 100 µM throughout.
As for `CCOC(=O)c1[nH]cnc1/N=N/N(C)N`, the TGI with HT29 colon, in the assay on RXF 393 renal, in the assay with SK-MEL-28 melanoma, in the assay on SN12C renal, in the assay with NCI-H226 lung and in the assay with SF-268 CNS was above 100 µM each time. In addition, the TGI is 78.7 µM in the assay with NCI-H522 lung, above 100 µM in the assay on U251 CNS, above 100 µM in the assay on T-47D breast and above 100 µM with HCT-15 colon.
For `c1nncn1C12C3C4C5C3C1C5C42` (configuration not stated), the TGI with HT29 colon, in the assay with SK-MEL-28 melanoma, in the assay on SN12C renal, in the assay with NCI-H226 lung, in the assay on SF-268 CNS and with NCI-H522 lung was above 100 µM each time. The TGI in the assay with U251 CNS, with T-47D breast and with HCT-15 colon was above 100 µM each time.
